Laboratory results from ChEMBL document CHEMBL1201862, “PubChem BioAssay data set” (2004).
The source made the active and inactive calls.

Assays:
[1] = biological target: T1, Probable nicotinate-nucleotide adenylyltransferase (Staphylococcus aureus (strain N315), UniProt P65502); type: functional, Staphylococcus aureus subsp. aureus N315;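 for IC50 Mean: confirmatory dose-response retesting of NadD inhibitor hits first found in an ultra-high-throughput screen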
[2] = biological target: Eukaryotic translation initiation factor 4E (Mus musculus, UniProt P63073); assay: blockers of eIF4G binding by eIF4E – biochemical, TR-FRET, dose response (AID 855); type: functional;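 note: potency for disrupting eIF4E binding to eIF4GI seen as loss of FRET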
[3] = biological target: T1, Probable nicotinate-nucleotide adenylyltransferase; type: functional, Staphylococcus aureus subsp. aureus N315; conditions: read-out: IC50_Mean
[4] = Counterscreen for inhibitors of Trypanosoma brucei methionyl tRNA synthetase (MetRS): Luminescence-based cell-based high throughput dose response assay to identify compounds that are cytotoxic to Jurkat human T lymphocyte cells.; type: functional
[5] = biological target: T2, Methionyl-tRNA synthetase, putative (Trypanosoma brucei brucei, UniProt Q38C91); type: functional, Trypanosoma brucei brucei strain 927/4 GUTat10.1
T2 sequence (Q38C91 whole entry): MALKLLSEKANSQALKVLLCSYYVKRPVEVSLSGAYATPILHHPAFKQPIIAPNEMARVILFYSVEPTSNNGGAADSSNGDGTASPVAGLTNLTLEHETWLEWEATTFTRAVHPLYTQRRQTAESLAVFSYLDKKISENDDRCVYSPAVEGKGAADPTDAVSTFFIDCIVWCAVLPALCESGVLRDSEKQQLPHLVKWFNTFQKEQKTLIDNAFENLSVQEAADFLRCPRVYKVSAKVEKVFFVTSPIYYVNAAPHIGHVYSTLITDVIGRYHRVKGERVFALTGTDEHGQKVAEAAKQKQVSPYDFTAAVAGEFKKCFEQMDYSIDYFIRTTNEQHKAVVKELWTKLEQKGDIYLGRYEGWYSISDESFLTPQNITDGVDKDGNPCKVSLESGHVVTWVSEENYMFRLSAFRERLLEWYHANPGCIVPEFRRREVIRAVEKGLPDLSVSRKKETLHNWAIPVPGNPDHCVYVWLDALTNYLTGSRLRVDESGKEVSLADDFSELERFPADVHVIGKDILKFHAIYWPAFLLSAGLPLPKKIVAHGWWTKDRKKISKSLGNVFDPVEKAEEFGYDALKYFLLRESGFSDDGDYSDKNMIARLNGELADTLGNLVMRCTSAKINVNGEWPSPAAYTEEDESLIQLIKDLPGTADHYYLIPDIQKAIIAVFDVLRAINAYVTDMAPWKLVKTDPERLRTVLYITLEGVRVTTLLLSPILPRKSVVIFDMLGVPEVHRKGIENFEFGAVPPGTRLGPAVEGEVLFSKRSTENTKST

[6] = biological target: DNA repair and recombination protein RAD54-like (Homo sapiens, UniProt Q92698); assay: RAD54 Holliday junction migration blockers – biochemical, fluorescence, cherry-picked samples, dose series, confirmation (AID 651657); type: functional
[7] = Counterscreen for IDE inhibitors: Luminescence-based cell-based high throughput dose response assay to identify compounds that are cytotoxic to HEK cells. [Related pubchem assays: 434962 (Primary screen (IDE inhibitors in singlicate)), 449730 (Counterscreen (Cytotoxicity in triplicate)), 435028 (Confirmation (IDE inhibitors in triplicate)) …; type: functional; conditions: HEK293
[8] = biological target: T2, Methionyl-tRNA synthetase, putative; type: functional, Trypanosoma brucei brucei strain 927/4 GUTat10.1; remark: listed apart in the source
Insulin-degrading enzyme = biological target: T3, Insulin-degrading enzyme (Homo sapiens, UniProt P14735); assay: Dose Response: Fluorescence polarization-based cell-based high throughput dose response assay for inhibitors of insulin-degrading enzyme (IDE). [Related pubchem assays: 434962 (Primary screen (IDE inhibitors in singlicate)), 449730 (Counterscreen (Cytotoxicity in triplicate)), 435028 (Confirmation (IDE inhibitors in triplicate)), 434984 (Summary …; type: functional
T3 sequence (P14735 whole entry): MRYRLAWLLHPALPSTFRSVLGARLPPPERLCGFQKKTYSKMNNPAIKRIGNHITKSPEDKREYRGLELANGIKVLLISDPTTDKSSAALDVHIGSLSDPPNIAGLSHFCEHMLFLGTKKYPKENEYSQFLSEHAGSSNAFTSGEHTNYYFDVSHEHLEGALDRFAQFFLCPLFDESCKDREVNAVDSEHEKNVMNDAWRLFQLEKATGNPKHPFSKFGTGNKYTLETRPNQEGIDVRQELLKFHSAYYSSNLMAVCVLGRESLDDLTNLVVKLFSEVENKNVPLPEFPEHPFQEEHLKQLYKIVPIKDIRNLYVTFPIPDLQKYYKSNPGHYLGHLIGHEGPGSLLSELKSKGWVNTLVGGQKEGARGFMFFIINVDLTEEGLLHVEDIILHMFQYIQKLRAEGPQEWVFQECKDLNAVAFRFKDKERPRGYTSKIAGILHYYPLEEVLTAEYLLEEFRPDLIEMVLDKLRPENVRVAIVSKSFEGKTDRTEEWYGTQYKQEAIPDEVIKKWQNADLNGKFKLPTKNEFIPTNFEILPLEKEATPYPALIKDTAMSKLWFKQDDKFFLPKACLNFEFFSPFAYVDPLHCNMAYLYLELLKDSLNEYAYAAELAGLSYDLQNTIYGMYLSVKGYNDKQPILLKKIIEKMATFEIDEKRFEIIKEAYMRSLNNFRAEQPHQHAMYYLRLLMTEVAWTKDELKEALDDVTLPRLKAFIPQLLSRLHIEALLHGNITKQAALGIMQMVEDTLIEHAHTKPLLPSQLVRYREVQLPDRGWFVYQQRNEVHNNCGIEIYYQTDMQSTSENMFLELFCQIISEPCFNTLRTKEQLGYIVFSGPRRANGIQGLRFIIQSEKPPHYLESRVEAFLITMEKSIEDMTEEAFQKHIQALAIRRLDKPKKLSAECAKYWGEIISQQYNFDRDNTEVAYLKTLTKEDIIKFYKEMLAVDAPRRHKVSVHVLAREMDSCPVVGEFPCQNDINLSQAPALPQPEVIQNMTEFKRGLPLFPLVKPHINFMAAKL

[9] = biological target: T4, Rac GTPase-activating protein 1 (Homo sapiens, UniProt Q9H0H5); assay: blockers of MgcRacGAP-driven Rac1 GTP hydrolysis – biochemical, ADP Hunter fluorescence, primary and confirmatory, confirmation (AID 624330); type: functional
T4 sequence (Q9H0H5 whole entry): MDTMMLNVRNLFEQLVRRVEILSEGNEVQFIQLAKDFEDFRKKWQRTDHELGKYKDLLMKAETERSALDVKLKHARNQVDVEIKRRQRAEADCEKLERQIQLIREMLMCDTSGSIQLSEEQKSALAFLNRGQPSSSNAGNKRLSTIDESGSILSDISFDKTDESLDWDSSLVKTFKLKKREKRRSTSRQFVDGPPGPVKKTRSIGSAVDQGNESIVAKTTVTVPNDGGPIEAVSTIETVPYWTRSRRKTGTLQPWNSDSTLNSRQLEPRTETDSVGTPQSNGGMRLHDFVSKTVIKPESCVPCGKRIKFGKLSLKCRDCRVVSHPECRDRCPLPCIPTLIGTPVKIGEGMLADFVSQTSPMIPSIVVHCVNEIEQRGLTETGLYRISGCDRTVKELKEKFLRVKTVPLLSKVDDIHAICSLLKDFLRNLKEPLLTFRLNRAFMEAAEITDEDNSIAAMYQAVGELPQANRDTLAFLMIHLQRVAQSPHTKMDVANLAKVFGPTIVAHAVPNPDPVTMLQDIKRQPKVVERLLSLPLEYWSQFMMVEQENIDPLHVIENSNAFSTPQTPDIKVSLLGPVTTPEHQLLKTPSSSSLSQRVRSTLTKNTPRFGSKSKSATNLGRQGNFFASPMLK

Beta Lactamase = Beta Lactamase (Pseudomonas aeruginosa, UniProt Q932Y6); assay: BLA reporter interference, concentration series – BLA reporter cells, FRET fluorescence, artefact control for NOD2-RIPK2 interaction inhibitor project, dose response (AID 651552); type: functional, cell-based
Large T antigen = Large T antigen (Simian virus 40, UniProt P03070); type: functional, Betapolyomavirus macacae;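 note: Confirmatory-stage PubChem screen for compounds that inhibit SV40 T antigen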
[10] = biological target: Mitogen-activated protein kinase 10 (Homo sapiens, UniProt P53779); assay: Dose response biochemical screening assay for inhibitors of c-Jun N-Terminal Kinase 3 (JNK3). [Related pubchem assays: 746 ]
[11] = biological target: Glucose-6-phosphate 1-dehydrogenase (Homo sapiens, UniProt P11413); assay: inhibition of Homo sapiens G6PD, dose series – biochemical, fluorescence, selectivity assay for P. falciparum G6PD inhibitor project, dose response (AID 504792); type: functional
[12] = biological target: T5, Voltage-gated N-type calcium channel alpha-1B subunit/Amyloid beta A4 precursor protein-binding family A member 1 (Homo sapiens, UniProt Q00975+Q02410); type: protein assay
[13] = biological target: T5, Voltage-gated N-type calcium channel alpha-1B subunit/Amyloid beta A4 precursor protein-binding family A member 1; type: protein assay; remark: listed apart in the source
[14] = Fluorescence-based cell-based high throughput dose response assay for inhibitors of the interaction of nucleotide-binding oligomerization domain containing 2 (NOD2) and the receptor-interacting serine-threonine kinase 2 (RIPK2).; type: functional; conditions: Homo sapiens
Beta-lactamase [15] = biological target: Beta-lactamase (Salmonella choleraesuis (strain SC-B67), UniProt Q5J463)
[16] = biological target: T6, Short transient receptor potential channel 4 (Mus musculus, UniProt Q9QUQ5); assay: calcium entry via TRPC4 opening agents – cell-based, HEK293 TRPC4/mu-opioid, Fluo-4 calcium, dose response (AID 434937); type: functional
T6 sequence (Q9QUQ5 whole entry): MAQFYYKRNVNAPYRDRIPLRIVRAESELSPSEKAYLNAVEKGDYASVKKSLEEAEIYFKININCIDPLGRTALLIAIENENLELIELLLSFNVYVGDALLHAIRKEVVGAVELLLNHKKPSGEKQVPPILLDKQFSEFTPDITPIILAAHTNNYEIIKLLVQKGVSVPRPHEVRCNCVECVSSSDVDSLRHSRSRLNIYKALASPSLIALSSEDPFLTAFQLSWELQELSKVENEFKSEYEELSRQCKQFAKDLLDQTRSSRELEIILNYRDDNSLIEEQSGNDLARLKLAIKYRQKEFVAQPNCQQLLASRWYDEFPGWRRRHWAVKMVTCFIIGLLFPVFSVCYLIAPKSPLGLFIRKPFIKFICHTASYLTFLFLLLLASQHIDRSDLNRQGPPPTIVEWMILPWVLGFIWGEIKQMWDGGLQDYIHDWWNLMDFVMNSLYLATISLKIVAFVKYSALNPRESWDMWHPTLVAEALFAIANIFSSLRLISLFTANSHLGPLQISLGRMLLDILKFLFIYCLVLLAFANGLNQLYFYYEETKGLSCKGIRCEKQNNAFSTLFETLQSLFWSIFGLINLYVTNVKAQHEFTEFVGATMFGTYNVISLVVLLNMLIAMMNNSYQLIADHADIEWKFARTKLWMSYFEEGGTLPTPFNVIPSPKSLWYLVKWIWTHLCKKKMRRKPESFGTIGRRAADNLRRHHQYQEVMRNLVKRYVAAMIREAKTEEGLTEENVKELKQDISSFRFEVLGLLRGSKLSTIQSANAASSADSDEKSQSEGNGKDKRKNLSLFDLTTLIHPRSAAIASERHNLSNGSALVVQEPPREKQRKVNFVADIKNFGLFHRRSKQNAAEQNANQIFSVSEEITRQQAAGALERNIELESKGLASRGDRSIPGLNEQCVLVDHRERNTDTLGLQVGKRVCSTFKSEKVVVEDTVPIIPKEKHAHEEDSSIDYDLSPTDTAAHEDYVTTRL

Beta-lactamase [17] = biological target: Beta-lactamase (Pseudomonas aeruginosa, UniProt Q79MP6);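 note: biochemical dose-response test of metallo-beta-lactamase enzyme inhibition, read out by epi-absorbance; purified recombinant IMP-1 metallo-beta-lactamase with nitrocefin as substrate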
Mu-type opioid receptor = Mu-type opioid receptor (Homo sapiens, UniProt P35372); type: functional, cell-based;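 note: U2OS cells with beta-arrestin recruitment to OPRM1 by beta-gal complementation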
[18] = biological target: 5-hydroxytryptamine receptor 2A (Mus musculus, UniProt P35363); type: functional, cell-based;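 note: CHO-K1 cells with tagged receptor and beta-arrestin; agonist potency measured as compound-induced activation of the receptor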
[19] = biological target: 72 kDa type IV collagenase (Homo sapiens, UniProt P08253); assay: Dose Response validation of uHTS RPN11 inhibitor hits using a MMP-2 Fluorescence assay.; type: functional
[20] = biological target: 26S proteasome non-ATPase regulatory subunit 14 (Homo sapiens, UniProt O00487); assay: inhibition of proteasome subunit RPN11 – biochemical, fluorescence polarization, uHTS hits, confirmation (AID 602368); type: functional
[21] = biological target: T7, Sentrin-specific protease 1 (Homo sapiens, UniProt Q9P0U3); assay: SENP1 catalytic domain blockers, concentration series – biochemical, kinetic FRET, dose response (AID 651697); type: functional; conditions: read-out: IC50_Mean
[22] = biological target: T7, Sentrin-specific protease 1; assay: Dose response confirmation of small molecule inhibitors of the catalytic domain of the SUMO protease, SENP1 in a FRET assay.; type: functional; conditions: read-out: IC50_Mean
Prothrombin = Prothrombin (Bos taurus, UniProt P00735); assay: thrombin protease inhibitors – biochemical, fluorescence polarization, uHTS hits, dose response (AID 602369); type: functional

T7 sequence (Q9P0U3 whole entry, the tested form may be a part): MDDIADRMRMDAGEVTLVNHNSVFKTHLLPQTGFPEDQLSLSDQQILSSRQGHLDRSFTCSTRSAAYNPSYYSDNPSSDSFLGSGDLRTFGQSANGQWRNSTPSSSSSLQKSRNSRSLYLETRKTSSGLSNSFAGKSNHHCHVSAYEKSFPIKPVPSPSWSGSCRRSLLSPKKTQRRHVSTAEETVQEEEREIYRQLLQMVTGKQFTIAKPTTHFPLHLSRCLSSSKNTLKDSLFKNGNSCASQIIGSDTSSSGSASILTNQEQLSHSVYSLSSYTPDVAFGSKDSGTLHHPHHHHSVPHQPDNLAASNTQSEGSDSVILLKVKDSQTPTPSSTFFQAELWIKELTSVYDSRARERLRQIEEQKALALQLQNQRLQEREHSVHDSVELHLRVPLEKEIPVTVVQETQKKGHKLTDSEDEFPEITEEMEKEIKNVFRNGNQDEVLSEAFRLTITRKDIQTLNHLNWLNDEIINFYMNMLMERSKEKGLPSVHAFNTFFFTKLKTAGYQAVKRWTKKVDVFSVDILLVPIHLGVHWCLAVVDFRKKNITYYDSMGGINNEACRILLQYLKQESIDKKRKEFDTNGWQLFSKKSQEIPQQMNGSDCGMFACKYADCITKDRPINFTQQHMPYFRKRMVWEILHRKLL
T5 sequence (Q00975 whole entry): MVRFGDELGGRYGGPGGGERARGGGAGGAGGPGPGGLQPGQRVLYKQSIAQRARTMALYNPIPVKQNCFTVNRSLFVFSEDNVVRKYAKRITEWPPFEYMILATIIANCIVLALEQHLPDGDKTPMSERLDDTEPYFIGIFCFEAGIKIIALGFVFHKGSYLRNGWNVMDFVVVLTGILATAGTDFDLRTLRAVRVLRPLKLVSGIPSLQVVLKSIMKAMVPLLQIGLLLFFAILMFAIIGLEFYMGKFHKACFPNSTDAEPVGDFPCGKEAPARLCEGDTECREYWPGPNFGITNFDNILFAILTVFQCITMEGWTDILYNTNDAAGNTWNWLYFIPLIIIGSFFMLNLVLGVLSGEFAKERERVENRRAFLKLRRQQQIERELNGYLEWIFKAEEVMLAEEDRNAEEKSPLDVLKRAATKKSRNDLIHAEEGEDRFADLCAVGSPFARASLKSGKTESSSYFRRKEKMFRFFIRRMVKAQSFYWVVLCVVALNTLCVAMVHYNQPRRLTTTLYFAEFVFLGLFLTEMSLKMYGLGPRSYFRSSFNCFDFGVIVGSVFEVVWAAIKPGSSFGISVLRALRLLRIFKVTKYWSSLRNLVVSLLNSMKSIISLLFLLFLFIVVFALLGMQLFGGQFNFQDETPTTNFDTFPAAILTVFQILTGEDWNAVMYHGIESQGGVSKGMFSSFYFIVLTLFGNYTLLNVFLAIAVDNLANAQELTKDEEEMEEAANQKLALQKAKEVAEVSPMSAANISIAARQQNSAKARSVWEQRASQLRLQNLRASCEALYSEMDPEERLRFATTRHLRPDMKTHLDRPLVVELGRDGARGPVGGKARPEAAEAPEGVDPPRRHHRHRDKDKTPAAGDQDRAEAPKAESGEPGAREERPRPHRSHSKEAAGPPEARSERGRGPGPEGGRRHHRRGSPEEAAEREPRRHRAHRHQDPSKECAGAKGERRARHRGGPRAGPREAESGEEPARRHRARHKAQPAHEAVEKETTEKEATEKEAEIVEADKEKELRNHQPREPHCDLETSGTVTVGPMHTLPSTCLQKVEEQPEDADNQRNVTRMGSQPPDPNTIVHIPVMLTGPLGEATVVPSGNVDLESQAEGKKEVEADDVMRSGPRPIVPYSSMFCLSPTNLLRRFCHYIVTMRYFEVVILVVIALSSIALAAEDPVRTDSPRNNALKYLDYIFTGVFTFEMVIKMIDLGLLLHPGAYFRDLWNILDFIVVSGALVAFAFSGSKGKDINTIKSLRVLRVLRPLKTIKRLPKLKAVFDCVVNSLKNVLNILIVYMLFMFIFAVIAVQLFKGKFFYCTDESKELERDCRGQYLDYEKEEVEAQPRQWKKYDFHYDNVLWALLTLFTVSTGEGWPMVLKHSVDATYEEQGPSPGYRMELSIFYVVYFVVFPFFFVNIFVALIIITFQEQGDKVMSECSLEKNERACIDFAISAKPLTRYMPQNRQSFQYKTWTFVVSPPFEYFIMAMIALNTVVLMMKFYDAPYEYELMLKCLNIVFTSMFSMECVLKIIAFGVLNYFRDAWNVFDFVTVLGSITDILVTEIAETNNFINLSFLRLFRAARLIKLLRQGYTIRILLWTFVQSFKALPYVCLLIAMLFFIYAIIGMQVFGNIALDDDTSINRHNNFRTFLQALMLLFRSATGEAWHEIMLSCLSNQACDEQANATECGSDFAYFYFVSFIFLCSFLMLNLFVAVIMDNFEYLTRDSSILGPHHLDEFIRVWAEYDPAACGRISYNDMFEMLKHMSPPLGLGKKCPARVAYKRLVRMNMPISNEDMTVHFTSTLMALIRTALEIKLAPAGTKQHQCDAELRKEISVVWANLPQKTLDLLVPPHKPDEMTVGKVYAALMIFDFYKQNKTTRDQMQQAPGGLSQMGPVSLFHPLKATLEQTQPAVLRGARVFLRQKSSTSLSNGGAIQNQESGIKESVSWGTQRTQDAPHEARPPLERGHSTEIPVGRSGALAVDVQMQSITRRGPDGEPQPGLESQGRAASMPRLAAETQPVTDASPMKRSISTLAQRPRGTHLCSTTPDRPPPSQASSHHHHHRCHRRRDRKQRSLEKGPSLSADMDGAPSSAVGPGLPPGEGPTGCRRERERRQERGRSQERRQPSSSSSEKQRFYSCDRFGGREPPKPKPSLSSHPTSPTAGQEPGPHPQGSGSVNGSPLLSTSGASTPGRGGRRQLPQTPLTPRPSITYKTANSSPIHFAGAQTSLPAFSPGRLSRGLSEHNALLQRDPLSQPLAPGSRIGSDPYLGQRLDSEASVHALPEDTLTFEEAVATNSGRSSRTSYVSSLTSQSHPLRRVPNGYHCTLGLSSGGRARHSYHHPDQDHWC
T5 sequence (Q02410 whole entry): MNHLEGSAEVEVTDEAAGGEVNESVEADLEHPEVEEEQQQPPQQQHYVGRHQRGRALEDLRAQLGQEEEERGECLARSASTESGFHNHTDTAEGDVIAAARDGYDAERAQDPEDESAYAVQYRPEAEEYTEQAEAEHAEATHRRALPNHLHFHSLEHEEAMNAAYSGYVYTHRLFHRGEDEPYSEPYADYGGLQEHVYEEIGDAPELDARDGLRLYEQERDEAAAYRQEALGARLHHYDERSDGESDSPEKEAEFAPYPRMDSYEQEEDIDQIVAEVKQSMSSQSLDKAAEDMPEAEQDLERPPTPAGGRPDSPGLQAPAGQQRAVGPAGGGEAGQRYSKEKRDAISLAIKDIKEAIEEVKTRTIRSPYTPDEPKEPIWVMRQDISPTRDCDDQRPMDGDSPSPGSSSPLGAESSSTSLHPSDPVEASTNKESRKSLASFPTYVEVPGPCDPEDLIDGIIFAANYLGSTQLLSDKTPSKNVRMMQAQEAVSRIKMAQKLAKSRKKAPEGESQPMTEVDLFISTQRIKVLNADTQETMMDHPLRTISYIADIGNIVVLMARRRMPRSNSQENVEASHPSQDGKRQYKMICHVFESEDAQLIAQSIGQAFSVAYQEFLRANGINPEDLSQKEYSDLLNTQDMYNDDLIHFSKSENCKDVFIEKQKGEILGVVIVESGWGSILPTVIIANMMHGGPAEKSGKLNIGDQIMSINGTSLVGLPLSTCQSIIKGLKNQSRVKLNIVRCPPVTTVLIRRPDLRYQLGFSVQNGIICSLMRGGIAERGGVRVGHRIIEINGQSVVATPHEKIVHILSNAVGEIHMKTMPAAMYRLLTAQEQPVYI
T1 sequence (P65502 whole entry): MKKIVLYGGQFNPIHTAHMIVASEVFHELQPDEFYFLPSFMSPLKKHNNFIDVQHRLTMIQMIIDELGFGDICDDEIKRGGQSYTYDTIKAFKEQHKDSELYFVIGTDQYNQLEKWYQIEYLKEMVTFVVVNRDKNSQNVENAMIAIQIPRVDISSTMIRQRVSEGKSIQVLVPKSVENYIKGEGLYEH
Chain of Beta Lactamase (Q932Y6 whole entry): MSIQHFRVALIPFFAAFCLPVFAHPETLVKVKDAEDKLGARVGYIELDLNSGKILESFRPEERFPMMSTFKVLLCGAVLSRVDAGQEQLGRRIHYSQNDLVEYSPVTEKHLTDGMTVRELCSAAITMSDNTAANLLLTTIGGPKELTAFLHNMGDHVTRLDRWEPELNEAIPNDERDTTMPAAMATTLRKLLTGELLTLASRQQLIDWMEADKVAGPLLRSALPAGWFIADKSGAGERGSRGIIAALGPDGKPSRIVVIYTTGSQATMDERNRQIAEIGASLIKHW
Chain of Mitogen-activated protein kinase 10 (P53779 whole entry): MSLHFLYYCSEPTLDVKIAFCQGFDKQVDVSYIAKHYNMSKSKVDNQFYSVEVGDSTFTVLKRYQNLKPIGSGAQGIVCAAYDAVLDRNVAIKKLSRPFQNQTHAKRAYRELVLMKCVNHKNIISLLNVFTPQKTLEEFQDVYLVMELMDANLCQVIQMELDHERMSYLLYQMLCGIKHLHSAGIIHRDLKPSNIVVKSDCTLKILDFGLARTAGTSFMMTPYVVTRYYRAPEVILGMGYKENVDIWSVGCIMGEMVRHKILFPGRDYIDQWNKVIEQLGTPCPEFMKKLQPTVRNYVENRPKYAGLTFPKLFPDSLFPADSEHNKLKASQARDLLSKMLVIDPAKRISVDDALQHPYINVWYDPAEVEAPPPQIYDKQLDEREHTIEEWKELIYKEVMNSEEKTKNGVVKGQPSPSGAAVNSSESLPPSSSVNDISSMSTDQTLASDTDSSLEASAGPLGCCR
Chain of Beta-lactamase (Pseudomonas aeruginosa, UniProt Q79MP6) (Q79MP6 whole entry): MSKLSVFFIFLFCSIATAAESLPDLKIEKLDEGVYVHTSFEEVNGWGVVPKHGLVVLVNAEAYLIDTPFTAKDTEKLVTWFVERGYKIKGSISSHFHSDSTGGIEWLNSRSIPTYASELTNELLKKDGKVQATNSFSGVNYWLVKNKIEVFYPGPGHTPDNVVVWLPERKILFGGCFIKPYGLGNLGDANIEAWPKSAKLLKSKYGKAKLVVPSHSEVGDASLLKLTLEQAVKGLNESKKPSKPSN

Question: What does the source list for Cc1ccc(-c2cc(-c3ccc(Cl)cc3)c(C#N)c(N)n2)o1?
Answer: IC50 [1]: 0.461 µM (active); IC50 [2]: > 64 µM (inactive); IC50 [3]: 0.808 µM (active)

Question: What does the source list for Clc1ccc2[nH]c3c(NCCCN4CCOCC4)ncnc3c2c1?
Answer: IC50 [4]: 59.8 µM (inactive); IC50 [5]: 11.3 µM (inactive); AC50 [6]: 33.7 µM (active); IC50 [7]: 14.3 µM (not active); IC50 [8]: 9.1 µM (active); IC50 (Insulin-degrading enzyme): 10.9 µM (not active)

Question: With CC1=C(C)C[S+]([O-])N(S(=O)(=O)c2ccc(Cl)cc2)C1 (configuration not stated) as the compound, how does the IC50 [9] read?
Answer: 71.9 µM (active)

Question: What about the IC50 (Beta Lactamase) of the same compound?
Answer: 25.8 µM (inactive)

Question: What about the IC50 (Large T antigen) of the same compound?
Answer: 18.1 µM (active)

Question: And the IC50 [10]?
Answer: > 93.1 µM (not active)

Question: And the IC50 [11]?
Answer: > 80 µM (inactive)

Question: And the IC50 [12]?
Answer: 30.9 µM (active)

Question: And the IC50 [13]?
Answer: > 50 µM (inactive)

Question: What about the IC50 [14] of the same compound?
Answer: 5.57 µM (active)

Question: Which IC50 (Beta-lactamase [15]) does the source give for O=C1/C(=C\c2cc(Cl)c(O)c(Cl)c2)SC(=S)N1Cc1ccccc1 here?
Answer: 3.15 µM (active)

Question: And the EC50 [16]?
Answer: 5.31 µM (active)

Question: And the IC50 (Beta-lactamase [17])?
Answer: > 59.6 µM (inactive)

Question: For CN(C)S(=O)(=O)c1cc(NC(=O)CN2CCN(c3ccccc3)CC2)ccc1Cl, which EC50 (Mu-type opioid receptor) is on record?
Answer: 92.4 µM (inactive)

Question: And the EC50 [18]?
Answer: 30.5 µM (inactive)

Question: Which IC50 [19] does the source give for COc1ccc2c(C)cc(SCC(=O)N3CCOCC3)nc2c1 here?
Answer: > 100 µM (inactive)

Question: What about the IC50 [20] of the same compound?
Answer: 9.61 µM (active)

Question: And the IC50 [21]?
Answer: 13.3 µM (active)

Question: And the IC50 [22]?
Answer: 7.01 µM (active)

Question: What about the IC50 (Prothrombin) of the same compound?
Answer: 21.6 µM (active)
